Source: PubChem BioAssay AID1259407 (Chemical Carcinogenesis Research Information System (CCRIS), 2018)
Calls of active or inactive are those of the source. The rule behind the calls is not given here.

System: CCRIS mutagenicity, Ames/micronucleus/aberration tests
Test: CCRIS mutagenicity studies
Conditions: Test System: AMES SALMONELLA TYPHIMURIUM, Method: STANDARD PLATE
[1] = Strain/Indicator: TA98, Metabolic Activation: NONE
[2] = Strain/Indicator: TA100, Metabolic Activation: NONE
[3] = Strain/Indicator: TA98, Metabolic Activation: RAT, LIVER, S-9, AROCLOR

SMILES: O=[N+]([O-])c1ccc2c3c(c(O)ccc13)-c1ccccc1-2
- mutagenic call (Strain/Indicator: TA98(1,8-DNP6), Metabolic Activation: NONE): inactive; negative
- mutagenic call (Strain/Indicator: TA98(NR), Metabolic Activation: NONE): inactive; negative
- mutagenic call [1]: active; positive
- mutagenic call (Strain/Indicator: TA100(NR), Metabolic Activation: NONE): inactive; negative
- mutagenic call (Strain/Indicator: TA100(TN5-1,8-DNP1012), Metabolic Activation: NONE): inactive; negative
- mutagenic call [2]: inactive; negative

SMILES: Cn1ccc2ccc3ccc4ccc(O)cc4c3c21
- mutagenic call [3]: active; positive

SMILES: Nc1snc2cc(Cl)ccc12
- mutagenic call [1]: inactive; negative
- mutagenic call (Strain/Indicator: TA98, Metabolic Activation: S-9): inactive; negative
- mutagenic call [2]: inactive; negative
- mutagenic call (Strain/Indicator: TA100, Metabolic Activation: S-9): active; positive
- mutagenic call (Strain/Indicator: TA1535, Metabolic Activation: NONE): inactive; negative
- mutagenic call (Strain/Indicator: TA1535, Metabolic Activation: S-9): inactive; negative
- mutagenic call (Strain/Indicator: TA1537, Metabolic Activation: NONE): inactive; negative
- mutagenic call (Strain/Indicator: TA1537, Metabolic Activation: S-9): active; positive

SMILES: O=[N+]([O-])c1c(Cl)c(Cl)c2c(c1Cl)Oc1cc(Cl)c(Cl)cc1O2
- mutagenic call [1]: active; positive
- mutagenic call [3]: active; positive
- mutagenic call [2]: inactive; negative
- mutagenic call (Strain/Indicator: TA100, Metabolic Activation: RAT, LIVER, S-9, AROCLOR): active; positive
